Laboratory results reported in ChEMBL document CHEMBL4680323, “'Proximity frequencies' a new parameter to evaluate the profile of GABAR modulators” (Bioorg Med Chem Lett, 2021).
The source made the active and inactive calls. No cut-off for these calls is given here.

How the values were obtained:
Assay type in all cases: cell-based
Oocyte [1] = test: Agonist activity at GABAA alpha1/beta2/gamma2L (unknown origin) expressed in Xenopus laevis oocyte assessed as increase in chloride current at 30 uM relative to control; details: Homo sapiens, filed as agonist
Oocyte [2] = test: Modulatory activity at GABAA alpha1/beta2/gamma2L (unknown origin) expressed in Xenopus laevis oocyte assessed as chloride current at 1 to 100 uM; details: Homo sapiens, dose 1-100 µM
Oocyte [3] = test: Antagonist activity at GABAA alpha1/beta2/gamma2L (unknown origin) expressed in Xenopus laevis oocyte assessed as reduction in lorazepam-induced chloride current at 100 uM relative to control; design: scale not given: the % may be the effect or the level left; details: Homo sapiens, filed as antagonist
Oocyte [4] = test: Inverse agonist activity at GABAA alpha1/beta2/gamma2L (unknown origin) expressed in Xenopus laevis oocyte assessed as reduction in chloride current at 30 uM relative to control; design: scale not given: the % may be the effect or the level left; details: Homo sapiens
Oocyte [5] = test: Inverse agonist activity at GABAA alpha1/beta2/gamma2L (unknown origin) expressed in Xenopus laevis oocyte assessed as reduction in chloride current at 100 uM relative to control; design: scale not given: the % may be the effect or the level left; details: Homo sapiens, filed as inverse agonist

Row | Compound | Activity (Oocyte [2]) | Activity (Oocyte [3]) | also measured
1 | COc1ccc2cnc3c(C(=O)Nc4ccccc4)cnn3c2c1 |  |  | Activity (Oocyte [1]): 34%
2 | COc1ccc2cnc3c(C(=O)NCc4cccs4)cnn3c2c1 |  |  | Activity (Oocyte [1]): 34%
3 | COc1ccc2cnc3c(C(=O)NCC4CCCCC4)cnn3c2c1 | inactive | Active | 
4 | COc1ccc2c(c1)-n1ncc(C(=O)NCc3ccccc3)c1NC2 | inactive | Active | 
5 | COc1ccc2cnc3c(C(=O)NCc4ccccc4)cnn3c2c1 | inactive | Active | 
6 | COc1ccc2c(c1)-n1ncc(C(=O)Nc3ccccc3)c1NC2 |  |  | Activity (Oocyte [1]): 34%
7 | COc1ccc2cnc3c(C(=O)NCc4ccco4)cnn3c2c1 |  |  | Activity (Oocyte [1]): Active
8 | COc1ccc2c(c1)-n1ncc(C(=O)NCc3ccccc3OC)c1NC2 | inactive | Active | 
9 | COc1ccc2c(c1)-n1ncc(C(=O)NCC3CCCCC3)c1NC2 | inactive | Active | 
10 | COc1ccc2c(c1)-n1ncc(C(N)=O)c1NC2 | inactive | Active | 
11 | COc1ccc2c(c1)-n1ncc(C(=O)NCc3ccco3)c1NC2 |  |  | Activity (Oocyte [1]): Active
12 | COc1ccc2cnc3c(C(=O)NC(C)C)cnn3c2c1 | inactive | Active | 
13 | COc1ccc2cnc3c(C(=O)NC4CCCCC4)cnn3c2c1 |  |  | Activity (Oocyte [4]): 19%; Activity (Oocyte [5]): 49%
14 | COc1ccc2c(c1)-n1ncc(C(=O)NC(C)C)c1NC2 | inactive | 90% | 
15 | COc1ccc2c(c1)-n1ncc(C(=O)NC3CCCCC3)c1NC2 | inactive | Active | 
16 | COc1ccc2cnc3c(C(N)=O)cnn3c2c1 | inactive | Active | 
17 | COc1ccc2cnc3c(C(=O)NCc4ccccc4OC)cnn3c2c1 | inactive | Active | 
